Here are results for 13 compounds from US20240294551A1 (AMGEN INC., priority 2022, published 2024).

SMILES strings stand for the structures. Like-named read-outs stand apart in the source and are kept apart here.

The target of experiment [1] is His-tagged KRAS G12D protein (Homo sapiens (Human), UniProt P01116, G12D). The experiment in a line: KRAS G12D TR-FRET Assay. The format is binding. The following applies: read-out: KRAS G12D Binding IC50. In a few lines: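 His-tagged KRAS G12D (diluted to 20 nM in pH 7.4 HEPES buffer with 10 mM MgCl2 and 10 μM GDP) was preincubated with titrated compound for 30 min at room temperature. Biotinylated KRPep-2d peptide (diluted to 20 nM) was then added for 1 h, and displacement was monitored by TR-FRET.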
On the technique in general: In TR-FRET formats the signal depends on donor and acceptor labels being close together.

Experiment [2] concerns AsPC-1 cells. The experiment in a line: AsPC-1 CTG Assay (CellTiter-Glo cell viability). The following applies: AsPC-1, 72 h, first value of the cell, read-out: G12D/C/V Cell Proliferation CTG (72 h) AsPC-1. It is filed as cell-based, human. In a few lines: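 Human pancreatic AsPC-1 or colon SW620 cells in RPMI 1640 with 10% FBS, seeded overnight, then exposed to serially diluted compound for 72 h at 37 °C. CellTiter-Glo luminescence normalized to DMSO control; IC50 from a 4-parameter logistic model.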
Background: In ATP-based viability assays light output follows the ATP content of the culture.

The target in experiment [3] is GDP-bound KRAS protein (aa 1-169), containing both G12D and C118A amino acid substitutions (Homo sapiens (Human), UniProt P01116, C118A/G12D). In words: KRAS G12D Coupled Nucleotide Exchange Assay. The format is biochemical. The following applies: read-out: KRAS G12D Coupled Exchange IC50.
In experiment [4] the test system is Phosphorylation of ERK1/2 in AsPC-1 cells. The experiment in a line: Phospho-ERK1/2 MSD Assay. The following applies: read-out: 2 h p-ERK (AsPC-1 cells), IC50. It is filed as cell-based, human. In a few lines: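 Read-out: MSD electrochemiluminescent detection of phosphorylated ERK1/2 in whole-cell lysates, fitted to a 4-parameter logistic curve for IC50. Prior to lysis, AsPC-1 cells (25,000 per well) received a 2 h compound dose-response at 37 °C.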

Sequence of His-tagged KRAS G12D protein (P01116 other isoform, or with tags, fused parts or gaps G12D): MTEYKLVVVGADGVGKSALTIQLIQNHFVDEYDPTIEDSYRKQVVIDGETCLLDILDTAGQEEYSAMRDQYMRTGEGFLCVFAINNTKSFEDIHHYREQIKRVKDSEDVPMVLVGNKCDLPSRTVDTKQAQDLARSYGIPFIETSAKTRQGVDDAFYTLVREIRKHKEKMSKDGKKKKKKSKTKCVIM
Sequence of GDP-bound KRAS protein (aa 1-169), containing both G12D and C118A amino acid substitutions (P01116 other isoform, or with tags, fused parts or gaps G12D/C118A): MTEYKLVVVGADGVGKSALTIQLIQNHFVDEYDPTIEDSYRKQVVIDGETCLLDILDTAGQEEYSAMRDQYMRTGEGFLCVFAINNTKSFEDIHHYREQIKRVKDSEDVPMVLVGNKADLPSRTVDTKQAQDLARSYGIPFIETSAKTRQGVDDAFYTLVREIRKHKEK

Regarding `O=C1N[C@@H]2CCCCN(C2)c2nc(OC[C@@]34CCCN3C[C@H](F)C4)nc3c(F)c(ncc23)-c2c3c(cc4[nH]ncc24)CC[C@H]3CCO1` [Example 301, (16R,22S)-34-fluoro-8-(((2R,7aS)-2-fluorotetrahydro-1H-pyrrolo[1,2-a]pyrrol-7a(5H)-yl)methoxy)-19-oxa-3,7,9,11,17,28,29-heptaazaheptacyclo[20.9.1.1~2,6~.1~11,16~.0~5,10~.0~25,32~.0~27,31~]tetratriaconta-1(31),2(34),3,5,7,9,25(32),26,29-nonaen-18-one], the IC50 in experiment [1] stood at 5 nM; in experiment [2] (Homo sapiens, ASPC1, 72 h), 954 nM; in experiment [3], 3 nM; in experiment [4] (Homo sapiens, ASPC1, 2 h), 60.5 nM.
For the compound `C[C@@]12COCCN(C1)c1nc(OC[C@H]3CC[C@@H]4COCCN43)nc3c(F)c(ncc13)-c1c(c(Cl)cc3[nH]ncc13)CCCOC(=O)O2` [Example 308, (26S)-18-chloro-32-fluoro-4-((6R,8aR)-hexahydro-1H-pyrrolo[2,1-c][1,4]oxazin-6-ylmethoxy)-26-methyl-23,25,28-trioxa-1,3,5,9,14,15-hexaazahexacyclo[24.4.1.1~6,10~.0~2,7~.0~11,19~.0~12,16~]dotriaconta-2,4,6,8,10(32),11,13,16,18-nonaen-24-one], the IC50 in experiment [1] amounted to 6 nM; in experiment [2] (Homo sapiens, ASPC1, 72 h), 22 nM; in experiment [3], 3 nM; in experiment [4] (Homo sapiens, ASPC1, 2 h) it was 16.3 nM.
Consider `C[C@@]12COCCN(C1)c1nc(OC[C@@H]3CC[C@H]4COCCN43)nc3c(F)c(ncc13)-c1c(c(Cl)cc3[nH]ncc13)CCCOC(=O)O2` [Example 309, (26S)-18-chloro-32-fluoro-4-((6S,8aS)-hexahydro-1H-pyrrolo[2,1-c][1,4]oxazin-6-ylmethoxy)-26-methyl-23,25,28-trioxa-1,3,5,9,14,15-hexaazahexacyclo[24.4.1.1~6,10~.0~2,7~.0~11,19~.0~12,16~]dotriaconta-2,4,6,8,10(32),11,13,16,18-nonaen-24-one], for which the IC50 in experiment [1] amounted to 10 nM; in experiment [2] (Homo sapiens, ASPC1, 72 h) it was 153 nM; in experiment [3], 4 nM; in experiment [4] (Homo sapiens, ASPC1, 2 h) it was 71.6 nM.
For `O=C1OCCCc2c(Cl)cc3[nH]ncc3c2-c2ncc3c(nc(OC[C@@]45CCCN4C[C@H](F)C5)nc3c2F)N2CCOC[C@]3(C2)C[C@@H](C3)O1` [Example 312, (1S,3S)-11-chloro-34-fluoro-25-(((2R,7aS)-2-fluorotetrahydro-1H-pyrrolo[1,2-a]pyrrol-7a(5H)-yl)methoxy)-4,6,31-trioxa-14,15,20,24,26,28-hexaazaheptacyclo[26.4.1.1~1,3~.1~19,23~.0~10,18~.0~13,17~.0~22,27~]pentatriaconta-10,12,15,17,19(34),20,22,24,26-nonaen-5-one] the same measures were 4 nM, 1080 nM, 2 nM and 342 nM.
The corresponding values for `O=C1OCCCc2c(Cl)cc3[nH]ncc3c2-c2ncc3c(nc(OC[C@@]45CCCN4C[C@H](F)C5)nc3c2F)N2CCOCC3(CC(C3)O1)C2` [Example 313] are 19 nM, 1210 nM, 11 nM and 462 nM.
For `CO[C@@H]1C[C@@H](COc2nc3c4cnc(c(F)c4n2)-c2c(c(Cl)cc4[nH]ncc24)CCCOC(=O)O[C@]2(C)COCCN3C2)N(C)C1` [Example 319, (26S)-18-chloro-32-fluoro-4-(((2S,4R)-4-methoxy-1-methyl-2-pyrrolidinyl)methoxy)-26-methyl-23,25,28-trioxa-1,3,5,9,14,15-hexaazahexacyclo[24.4.1.1~6,10~.0~2,7~.0~11,19~.0~12,16~]dotriaconta-2,4,6,8,10(32),11,13,16,18-nonaen-24-one] the same measures were 6 nM, 134 nM, 3 nM and 26.7 nM.
In the case of `O=C1OCCCc2c(Cl)cc3[nH]ncc3c2-c2ncc3c(nc(OC[C@@]45CCCN4C[C@H](F)C5)nc3c2F)N2CCC[C@]3(C2)C[C@H](C3)O1` [Example 323, (1R,3S)-11-chloro-33-fluoro-25-(((2R,7aS)-2-fluorotetrahydro-1H-pyrrolo[1,2-a]pyrrol-7a(5H)-yl)methoxy)-4,6-dioxa-14,15,20,24,26,28-hexaazaheptacyclo[26.3.1.1~1,3~.1~19,23~.0~10,18~.0~13,17~.0~22,27~]tetratriaconta-10,12,15,17,19(33),20,22,24,26-nonaen-5-one], the IC50 was 5 nM in experiment [1], 318 nM in experiment [2], 2 nM in experiment [3] and 30.5 nM in experiment [4] (2 h).
In the case of `C[C@@H]1C[C@@H](COc2nc3c4cnc(c(F)c4n2)-c2c(c(Cl)cc4[nH]ncc24)CCCOC(=O)O[C@@H]2COCCN3C2)N(C)C1` [Example 328, (26S)-18-chloro-4-(((2S,4R)-1,4-dimethyl-2-pyrrolidinyl)methoxy)-32-fluoro-23,25,28-trioxa-1,3,5,9,14,15-hexaazahexacyclo[24.4.1.1~6,10~.0~2,7~.0~11,19~.0~12,16~]dotriaconta-2,4,6(32),7,9,11,13,16,18-nonaen-24-one], the IC50 was 5 nM in experiment [1]; 50 nM in experiment [2] (Homo sapiens, ASPC1, 72 h); 3 nM in experiment [3]; 29 nM in experiment [4] (Homo sapiens, ASPC1, 2 h).
For `O=C1OCCc2c(Cl)cc3[nH]ncc3c2-c2cc3nc(OC[C@@]45CCCN4C[C@H](F)C5)nc(c3cn2)N2CCC[C@]3(C2)C[C@H](C3)O1` [Example 343, (1R,3S)-10-chloro-24-(((2R,7aS)-2-fluorotetrahydro-1H-pyrrolo[1,2-a]pyrrol-7a(5H)-yl)methoxy)-4,6-dioxa-13,14,19,23,25,27-hexaazaheptacyclo[25.3.1.1~1,3~.1~18,22~.0~9,17~.0~12,16~.0~21,26~]tritriaconta-9,11,14,16,18(32),19,21,23,25-nonaen-5-one] the same measures were 22 nM, 953 nM, 13 nM and 45.2 nM.
Turning to `CN1CCC[C@H]1COc1nc2c3cnc(c(F)c3n1)-c1cc(O)cc3ccc(F)c(c13)CCOC(=O)O[C@]1(C)COCCN2C1` [Example 344, (16S)-23,32-difluoro-28-hydroxy-16-methyl-8-(((2S)-1-methyl-2-pyrrolidinyl)methoxy)-14,17,19-trioxa-3,7,9,11-tetraazahexacyclo[20.7.1.1~2,6~.1~11,16~.0~5,10~.0~26,30~]dotriaconta-1(30),2(32),3,5,7,9,22,24,26,28-decaen-18-one], the IC50 in experiment [1] turned out to be 8 nM; in experiment [2] (Homo sapiens, ASPC1, 72 h), 156 nM; in experiment [3], 3 nM; in experiment [4] (Homo sapiens, ASPC1, 2 h) it was 5.7 nM.
The corresponding values for `C[C@@]12COCCN(C1)c1nc(OC[C@@]34CCCN3C[C@H](F)C4)nc3c(F)c(ncc13)-c1cc(O)cc3ccc(F)c(c13)CCOC(=O)O2` [Example 345, (16S)-23,32-difluoro-8-(((2R,7aS)-2-fluorotetrahydro-1H-pyrrolo[1,2-a]pyrrol-7a(5H)-yl)methoxy)-28-hydroxy-16-methyl-14,17,19-trioxa-3,7,9,11-tetraazahexacyclo[20.7.1.1~2,6~.1~11,16~.0~5,10~.0~26,30~]dotriaconta-1(30),2(32),3,5,7,9,22,24,26,28-decaen-18-one] are 3 nM, 16 nM, 1 nM and 0.7 nM.
Consider `C[C@@]12COCCN(C1)c1nc(OC[C@@]34CCCN3C[C@H](F)C4)nc3cc(ncc13)-c1c(c(Cl)cc3[nH]ncc13)CCCOC(=O)O2` [Example 346, (26S)-18-chloro-4-(((2R,7aS)-2-fluorotetrahydro-1H-pyrrolo[1,2-a]pyrrol-7a(5H)-yl)methoxy)-26-methyl-23,25,28-trioxa-1,3,5,9,14,15-hexaazahexacyclo[24.4.1.1~6,10~.0~2,7~.0~11,19~.0~12,16~]dotriaconta-2,4,6(32),7,9,11,13,16,18-nonaen-24-one], for which the IC50 was 5 nM in experiment [1]; 297 nM in experiment [2] (Homo sapiens, ASPC1, 72 h); 2 nM in experiment [3]; 13.4 nM in experiment [4] (Homo sapiens, ASPC1, 2 h).
For `C[C@@H]1CN(c2nc3c4cnc(c(F)c4n2)-c2c(c(Cl)cc4[nH]ncc24)CCCOC(=O)O[C@@H]2COCCN3C2)CCN1` [Example 348, (26S)-18-chloro-32-fluoro-4-((3R)-3-methyl-1-piperazinyl)-23,25,28-trioxa-1,3,5,9,14,15-hexaazahexacyclo[24.4.1.1~6,10~.0~2,7~.0~11,19~.0~12,16~]dotriaconta-2,4,6,8,10(32),11,13,16,18-nonaen-24-one], the IC50 in experiment [1] was determined as 13 nM; in experiment [2] (Homo sapiens, ASPC1, 72 h), 2220 nM; in experiment [3] it was 4 nM; in experiment [4] (Homo sapiens, ASPC1, 2 h), 298 nM.
